Among the data in PubChem BioAssay AID248 (DTP/NCI, 2004) are T/C values, retold here.

The test system of the assay is L1210 leukemia ip in BDF1 mice, survival T/C. The assay is described as follows: NCI In Vivo Anticancer Drug Screen. Data for tumor model L1210 Leukemia (intraperitoneal) in B6D2F1 (BDF1) mice. Particulars: endpoint: mean survival time, higher = longer survival. The essentials: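 Mice bearing the transplanted tumor received compound or vehicle. Survival of the treated group was divided by that of the vehicle-treated control group to give the ratio.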

The mark [1] stands for this setting: dose: 50.0 mg/kg/injection, schedule: Q01DX009 (ip), vehicle: Klucel (hydroxypropylcellulose) (HPC).
Where [2] appears, read: dose: 100.0 mg/kg/injection, schedule: Q01DX009 (ip), vehicle: Klucel (hydroxypropylcellulose) (HPC).
Setting [3] is: dose: 100.0 mg/kg/injection, schedule: Q04DX003 (ip), vehicle: Klucel (hydroxypropylcellulose) (HPC).
The mark [4] stands for this setting: dose: 200.0 mg/kg/injection, schedule: Q04DX003 (ip), vehicle: Klucel (hydroxypropylcellulose) (HPC).
[5] abbreviates: dose: 400.0 mg/kg/injection, schedule: Q04DX003 (ip), vehicle: Klucel (hydroxypropylcellulose) (HPC).
Setting [6] is: dose: 100.0 mg/kg/injection, schedule: Q04DX002 (ip), vehicle: Klucel (hydroxypropylcellulose) (HPC).
Setting [7] is: dose: 200.0 mg/kg/injection, schedule: Q04DX002 (ip), vehicle: Klucel (hydroxypropylcellulose) (HPC).

The structures appear in SMILES notation. “And” between values parts separate entries of the source, which are not always exact repeats. Equal entries are not always repeated. Inconclusive results and toxic doses are left out.

With `CCOc1ccn(C2CCOC2=O)c(=O)n1` (centres undefined), the T/C is, setting by setting: (dose: 100.0 mg/kg/injection, schedule: Q01DX009 (ip), vehicle: saline) 100 % of control; (dose: 100.0 mg/kg/injection, schedule: Q04DX003 (ip), vehicle: alcohol) 104 % of control; (dose: 200.0 mg/kg/injection, schedule: Q01DX009 (ip), vehicle: saline) 97 % of control; (dose: 200.0 mg/kg/injection, schedule: Q04DX003 (ip), vehicle: alcohol) 102 % of control; (dose: 400.0 mg/kg/injection, schedule: Q01DX009 (ip), vehicle: saline) 100 % of control; (dose: 400.0 mg/kg/injection, schedule: Q04DX003 (ip), vehicle: alcohol) 102 % of control.

On to `CO[C@H]1Nc2c(ccc(C)c2O)C(=O)N2C=C(/C=C/C(N)=O)C[C@@H]12`, for which the T/C runs as follows: (dose: 0.05 mg/kg/injection, schedule: Q01DX015 (ip), vehicle: saline) 104 % of control; (dose: 0.08 mg/kg/injection, schedule: Q04DX003 (ip), vehicle: saline with Tween-80) 112 % of control; (dose: 0.1 mg/kg/injection, schedule: Q01DX015 (ip), vehicle: saline) 112 % of control; (dose: 0.16 mg/kg/injection, schedule: Q04DX003 (ip), vehicle: saline with Tween-80) 93 % of control; (dose: 0.2 mg/kg/injection, schedule: Q01DX015 (ip), vehicle: saline) 112 % of control; (dose: 0.21 mg/kg/injection, schedule: Q01DX015 (ip), vehicle: saline) 114 % of control. For the same compound, the T/C was 117 % of control (dose: 0.25 mg/kg/injection, schedule: Q01DX001 (ip), vehicle: saline); 118 % of control (dose: 0.36 mg/kg/injection, schedule: Q01DX015 (ip), vehicle: saline); 110 % of control (dose: 0.4 mg/kg/injection, schedule: Q01DX015 (ip), vehicle: saline); 117 % of control (dose: 0.5 mg/kg/injection, schedule: Q01DX001 (ip), vehicle: saline); 115 % of control and 117 % of control (dose: 0.6 mg/kg/injection, schedule: Q01DX015 (ip), vehicle: saline); 98 % of control (dose: 1.0 mg/kg/injection, schedule: Q01DX015 (ip), vehicle: saline). Further, the T/C was 156 % of control (dose: 1.3 mg/kg/injection, schedule: Q01DX001 (ip), vehicle: saline); 121 % of control (dose: 25.0 micrograms/kg/injection, schedule: Q04DX003 (ip), vehicle: saline); 102 % of control (dose: 50.0 micrograms/kg/injection, schedule: Q04DX003 (ip), vehicle: saline); 114 % of control (dose: 100.0 micrograms/kg/injection, schedule: Q04DX003 (ip), vehicle: saline); 107 % of control (dose: 200.0 micrograms/kg/injection, schedule: Q04DX003 (ip), vehicle: saline).

Regarding `COc1ccc(Sc2cccc3c2C(=O)c2c(Sc4ccc(OC)cc4)cccc2C3=O)cc1`, the T/C (dose: 100.0 mg/kg/injection, schedule: Q04DX003 (ip), vehicle: saline with Tween-80) is 91 % of control; the T/C (dose: 200.0 mg/kg/injection, schedule: Q04DX003 (ip), vehicle: saline with Tween-80) is 96 % of control; the T/C (dose: 400.0 mg/kg/injection, schedule: Q04DX003 (ip), vehicle: saline with Tween-80) was 87 % of control.

Turning to `CC(=O)Nc1c(C)cc(C)cc1C`, the T/C is, setting by setting: under setting [1], 105 % of control; under setting [2], 106 % of control; under setting [3], 96 % of control; (dose: 200.0 mg/kg/injection, schedule: Q01DX009 (ip), vehicle: Klucel (hydroxypropylcellulose) (HPC)) 103 % of control; under setting [4], 102 % of control; (dose: 400.0 mg/kg/injection, schedule: Q01DX009 (ip), vehicle: Klucel (hydroxypropylcellulose) (HPC)) 103 % of control. In addition, the T/C under setting [5] was 104 % of control.

For the compound `N#CC(C#N)=Cc1ccc(C=C(C#N)C#N)cc1`, the T/C runs as follows: (dose: 25.0 mg/kg/injection, schedule: Q04DX003 (ip), vehicle: Klucel (hydroxypropylcellulose) (HPC)) 98 % of control; under setting [1], 103 % of control; (dose: 50.0 mg/kg/injection, schedule: Q04DX003 (ip), vehicle: Klucel (hydroxypropylcellulose) (HPC)) 98 % of control; under setting [2], 86 % of control; under setting [3], 98 % of control and 105 % of control; under setting [4], 100 % of control. Moreover, the T/C under setting [5] was 108 % of control.

On to `C=CCNC(=O)/C=C\C(=O)O`, for which the T/C was 99 % of control under setting [6] and 96 % of control under setting [7].

As for `O=C1NCC(c2ccccc2)(c2ccccc2)C(=O)N1`, the T/C runs as follows: (dose: 50.0 mg/kg/injection, schedule: Q01DX001 (ip), vehicle: carboxymethylcellulose (CMC)) 94 % of control; (dose: 100.0 mg/kg/injection, schedule: Q01DX001 (ip), vehicle: carboxymethylcellulose (CMC)) 94 % of control; (dose: 200.0 mg/kg/injection, schedule: Q01DX001 (ip), vehicle: carboxymethylcellulose (CMC)) 91 % of control; (dose: 400.0 mg/kg/injection, schedule: Q01DX001 (ip), vehicle: carboxymethylcellulose (CMC)) 86 % of control.

As for `CCOc1ccc(-n2c(=O)c(N=Nc3ccccc3C)c(O)n(-c3ccc(C)cc3)c2=S)cc1`, the T/C is 92 % of control (dose: 37.5 mg/kg/injection, schedule: Q01DX001 (ip), vehicle: Klucel (hydroxypropylcellulose) (HPC)); 101 % of control (dose: 75.0 mg/kg/injection, schedule: Q01DX001 (ip), vehicle: Klucel (hydroxypropylcellulose) (HPC)); 97 % of control (dose: 150.0 mg/kg/injection, schedule: Q01DX001 (ip), vehicle: Klucel (hydroxypropylcellulose) (HPC)).

For the compound `CCCC(=O)NC1Cc2cc(C)cc(C)c21` (centres undefined), the T/C is, setting by setting: (dose: 50.0 mg/kg/injection, schedule: Q04DX002 (ip), vehicle: Klucel (hydroxypropylcellulose) (HPC)) 100 % of control; under setting [6], 111 % of control; under setting [7], 96 % of control.

On to `CCOC(=O)/C=C(/Nc1ccc(C(=O)c2ccccc2)cc1)C(=O)OCC`, for which the T/C is, setting by setting: (dose: 100.0 mg/kg/injection, schedule: Q01DX001 (ip), vehicle: acetone) 87 % of control; (dose: 100.0 mg/kg/injection, schedule: Q04DX003 (ip), vehicle: acetone) 95 % of control; (dose: 200.0 mg/kg/injection, schedule: Q01DX001 (ip), vehicle: acetone) 92 % of control; (dose: 200.0 mg/kg/injection, schedule: Q04DX003 (ip), vehicle: acetone) 93 % of control; (dose: 400.0 mg/kg/injection, schedule: Q01DX001 (ip), vehicle: acetone) 90 % of control; (dose: 400.0 mg/kg/injection, schedule: Q04DX003 (ip), vehicle: acetone) 98 % of control.

Consider `CCOC(=O)COCC(C)=O`, for which the T/C (dose: 50.0 mg/kg/injection, schedule: Q01DX009 (ip), vehicle: saline with Tween-80) is 92 % of control; the T/C (dose: 100.0 mg/kg/injection, schedule: Q01DX009 (ip), vehicle: saline with Tween-80) is 96 % of control; the T/C (dose: 200.0 mg/kg/injection, schedule: Q01DX009 (ip), vehicle: saline with Tween-80) is 96 % of control.

`CC(O)(C(F)(F)F)C(C)(O)C(F)(F)F` (centres undefined): the T/C is, setting by setting: (dose: 100.0 mg/kg/injection, schedule: Q04DX002 (ip), vehicle: saline with Tween-80) 86 % of control; (dose: 200.0 mg/kg/injection, schedule: Q04DX002 (ip), vehicle: saline with Tween-80) 91 % of control.

As to `CCN(CC)CCC(C#N)(CC=C(C)C)c1cccc2ccccc12` (centres undefined), the T/C was 100 % of control (dose: 12.5 mg/kg/injection, schedule: Q01DX009 (ip), vehicle: Klucel (hydroxypropylcellulose) (HPC)); 110 % of control (dose: 25.0 mg/kg/injection, schedule: Q01DX009 (ip), vehicle: Klucel (hydroxypropylcellulose) (HPC)); 97 % of control under setting [1].

Turning to `CCS(=O)(=O)CS(=O)(=O)c1ccc(C)cc1`, the T/C (dose: 100.0 mg/kg/injection, schedule: Q01DX001 (ip), vehicle: Klucel (hydroxypropylcellulose) (HPC)) was 103 % of control; the T/C (dose: 200.0 mg/kg/injection, schedule: Q01DX001 (ip), vehicle: Klucel (hydroxypropylcellulose) (HPC)) was 103 % of control; the T/C (dose: 400.0 mg/kg/injection, schedule: Q01DX001 (ip), vehicle: Klucel (hydroxypropylcellulose) (HPC)) is 103 % of control.

With `CN(C)Cc1ccccc1COC(=O)c1cccc(Br)c1`, the T/C reads like this: under setting [6], 98 % of control; under setting [7], 102 % of control.

As for `CCSc1n[nH]c(=O)nc1NN`, the T/C by setting is: (dose: 10.0 mg/kg/injection, schedule: Q01DX001 (ip), vehicle: acetone) 102 % of control; (dose: 20.0 mg/kg/injection, schedule: Q01DX001 (ip), vehicle: acetone) 96 % of control; (dose: 40.0 mg/kg/injection, schedule: Q01DX001 (ip), vehicle: acetone) 96 % of control.
